The values that follow come from patent US20060100243A1 (priority 2004, published 2006).

One series concerns male Swiss-Webster mice. Briefly: dose response study of induced locomotor stimulation. The settings on record: for time of occurrence of stimulant effects following injection: at the active doses.
The target of series [1] is T1, recombinant human dopamine transporter (Homo sapiens, UniProt Q01959).
T1 construct: expressed in transfected cells
Briefly: dopamine reuptake inhibition in HEK 293 cells. The settings on record: for IC50: HEK 293 cells; for NE/DA REUPTAKE: ratio of NE/DA reuptake IC50, selectivity for dopamine over norepinephrine transporter. It counts as cell-based.

Series [2] has as its target T2, recombinant human norepinephrine transporter (Homo sapiens, UniProt P23975).
T2 construct: expressed in transfected cells
The experiment in a line: biochemical. The class given is binding.

Series [3] has as its target T2, recombinant human norepinephrine transporter. The experiment in a line: cell-based.
The target in series [4] is T1, recombinant human dopamine transporter. Briefly: [125I]RTI-55 binding, dopamine transporter in HEK 293 cells. The settings on record: for Ki: HEK 293 cells; for potency at binding to the dopamine transporter and blocking dopamine reuptake: in words, compared with MPH / other samples.
The target in series [5] is T3, recombinant human serotonin transporter (Homo sapiens, UniProt P31645).
T3 construct: expressed in transfected cells
T3 sequence (P31645 whole entry): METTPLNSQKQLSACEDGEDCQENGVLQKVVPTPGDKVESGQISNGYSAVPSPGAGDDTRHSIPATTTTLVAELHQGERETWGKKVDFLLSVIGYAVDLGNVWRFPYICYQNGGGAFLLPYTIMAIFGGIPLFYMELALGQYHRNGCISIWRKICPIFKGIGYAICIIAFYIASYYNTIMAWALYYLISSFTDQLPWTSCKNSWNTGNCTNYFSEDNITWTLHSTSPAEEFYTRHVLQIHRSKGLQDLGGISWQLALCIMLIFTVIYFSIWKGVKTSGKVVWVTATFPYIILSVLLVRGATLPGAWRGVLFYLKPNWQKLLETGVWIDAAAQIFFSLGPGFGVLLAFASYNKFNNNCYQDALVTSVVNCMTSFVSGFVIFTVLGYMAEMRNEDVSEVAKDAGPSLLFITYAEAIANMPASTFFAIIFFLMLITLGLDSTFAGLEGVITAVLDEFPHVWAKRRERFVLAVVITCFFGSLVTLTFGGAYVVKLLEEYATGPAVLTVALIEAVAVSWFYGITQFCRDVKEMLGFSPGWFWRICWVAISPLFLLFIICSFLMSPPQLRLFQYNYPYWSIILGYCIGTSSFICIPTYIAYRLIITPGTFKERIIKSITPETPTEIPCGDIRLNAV
Briefly: serotonin (5HT) reuptake inhibition in HEK 293 cells. It counts as cell-based. The settings on record: SEROTONIN 5HT REUPTAKE (IC50), HEK 293 cells.

Series [6] has as its target T3, recombinant human serotonin transporter. The experiment in a line: biochemical. It counts as binding.
The conditions of series [7]: prescribed doses; cited from earlier work.
Setting [8] is: RR/SS racemates table, HEK 293 cells, read-out: NOREPINEPHRINE [I125]-RTI-55 BINDING (Ki).
Where [9] appears, read: RR/SS racemates table, HEK 293 cells, read-out: NOREPINEPHRINE NE REUPTAKE (IC50).
The mark [10] stands for this setting: SEROTONIN [I125]-RTI-55 BINDING (Ki).
[11] abbreviates: DOPAMINE DA REUPTAKE (IC50), RR/SS racemates table.
Setting [12] is: NOREPINEPHRINE [I125]-RTI-55 BINDING (Ki).
The mark [13] stands for this setting: DOPAMINE [I125]-RTI-55 BINDING (Ki), RR/SS racemates table.
The mark [14] stands for this setting: DOPAMINE DA REUPTAKE (IC50), RS/SR racemates table.
Setting [15] is: DOPAMINE [I125]-RTI-55 BINDING (Ki), RS/SR racemates table.
The mark [16] stands for this setting: RS/SR racemates table, HEK 293 cells, read-out: SEROTONIN [I125]-RTI-55 BINDING (Ki).
Setting [17] is: RS/SR racemates table, HEK 293 cells, read-out: NOREPINEPHRINE [I125]-RTI-55 BINDING (Ki).
[18] abbreviates: RS/SR racemates table, HEK 293 cells, read-out: NOREPINEPHRINE NE REUPTAKE (IC50).
[19] abbreviates: RR/SS racemates table, HEK 293 cells, read-out: SEROTONIN [I125]-RTI-55 BINDING (Ki).

Entries after “also recorded” stand apart in the source; their conditions may differ. Like-named read-outs stand apart in the source and are kept apart here.

T1 sequence (Q01959 whole entry): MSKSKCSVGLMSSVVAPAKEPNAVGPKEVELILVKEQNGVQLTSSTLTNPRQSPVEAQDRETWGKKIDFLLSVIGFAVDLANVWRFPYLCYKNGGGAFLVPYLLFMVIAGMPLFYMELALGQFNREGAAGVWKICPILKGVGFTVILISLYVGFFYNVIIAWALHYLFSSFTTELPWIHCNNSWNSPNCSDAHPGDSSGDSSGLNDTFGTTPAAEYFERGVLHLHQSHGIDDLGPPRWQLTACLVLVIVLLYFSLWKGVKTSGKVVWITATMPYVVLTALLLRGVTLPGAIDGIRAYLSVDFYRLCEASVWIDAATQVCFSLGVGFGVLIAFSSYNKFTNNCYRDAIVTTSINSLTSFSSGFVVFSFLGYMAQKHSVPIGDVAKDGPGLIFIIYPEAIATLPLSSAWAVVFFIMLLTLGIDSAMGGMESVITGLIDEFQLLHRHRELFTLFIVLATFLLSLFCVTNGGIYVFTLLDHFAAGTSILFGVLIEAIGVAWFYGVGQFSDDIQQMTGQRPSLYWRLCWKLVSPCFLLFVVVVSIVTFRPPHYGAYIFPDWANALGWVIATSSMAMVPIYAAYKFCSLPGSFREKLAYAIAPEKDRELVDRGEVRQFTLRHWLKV
T2 sequence (P23975 whole entry): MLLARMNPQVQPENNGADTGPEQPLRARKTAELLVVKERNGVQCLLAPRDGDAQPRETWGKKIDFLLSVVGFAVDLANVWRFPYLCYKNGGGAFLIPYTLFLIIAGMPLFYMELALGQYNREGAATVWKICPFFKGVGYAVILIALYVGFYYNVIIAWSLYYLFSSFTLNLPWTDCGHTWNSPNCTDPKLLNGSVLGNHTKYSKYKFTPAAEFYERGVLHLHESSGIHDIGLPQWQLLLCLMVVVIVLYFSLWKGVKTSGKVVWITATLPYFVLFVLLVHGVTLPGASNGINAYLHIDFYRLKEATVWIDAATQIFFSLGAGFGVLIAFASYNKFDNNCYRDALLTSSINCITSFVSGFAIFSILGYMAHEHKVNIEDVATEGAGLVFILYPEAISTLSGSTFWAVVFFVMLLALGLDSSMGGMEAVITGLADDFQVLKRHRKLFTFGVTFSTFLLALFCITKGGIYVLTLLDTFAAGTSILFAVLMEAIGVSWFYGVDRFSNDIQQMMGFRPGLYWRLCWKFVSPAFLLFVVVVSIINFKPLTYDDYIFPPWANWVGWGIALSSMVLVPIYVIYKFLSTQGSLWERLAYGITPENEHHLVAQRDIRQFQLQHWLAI

Turning to `CC(C)CC(c1ccc(Cl)cc1)C1CCCCN1` (racemic) [Sample D], the “duration of stimulant effects” value with male Swiss-Webster mice (mice, IP, 3 mg/kg) is “up to 4 hours”; in the series on male Swiss-Webster mice (mice, IP, 10 mg/kg), not above 5 h; with male Swiss-Webster mice (mice, IP, 30 mg/kg) it was “over 8 hours”. The “time of occurrence of stimulant effects following injection” value with male Swiss-Webster mice (mice, IP) is recorded as “at least 20 minutes”. The IC50 (as a rule, the concentration at which inhibition is half-maximal) in series [1] (RR/SS racemates table, read-out: DOPAMINE DA REUPTAKE (IC50)) was determined as 0.0086 ± 0.0029 µM; in series [3] (setting [9]) it was 0.12 ± 0.04 µM. The Ki (usually the equilibrium dissociation constant of an inhibitor or competing ligand from its target) came to 0.84 ± 0.13 µM in series [2] (setting [8]) and 0.016 ± 0.004 µM in series [4] (RR/SS racemates table, read-out: DOPAMINE [I125]-RTI-55 BINDING (Ki)). Further, the “potency at binding to the dopamine transporter and blocking dopamine reuptake” value in series [4] is “enhanced potency; also recorded: most potent”.
With `Clc1ccc(C(CCc2ccccc2)C2CCCCN2)cc1` (single isomer, unassigned) [I], the IC50 in series [5] (RR/SS racemates table) stood at 0.65 ± 0.219 µM; in series [1] (setting [11]), 0.16 ± 0.02 µM; in series [3] (NORE[…] REUPTAKE (IC50)), 0.68 ± 0.24 µM. The Ki is 0.64 ± 0.06 µM in series [6] (setting [10]), 1.8 ± 0.6 µM in series [2] (setting [12]) and 0.024 ± 0.009 µM in series [4] (setting [13]). In addition, the “NE/DA REUPTAKE” value in series [1] turned out to be 4.3.
Turning to `Clc1ccc(C(Cc2ccccc2)C2CCCCN2)cc1` (single isomer, unassigned) [JJ], the results for the IC50 in series [5] (RS/SR racemates table), in series [1] (setting [14]) and in series [3] (NORE[…] REUPTAKE (IC50)) were 4.7 ± 0.5 µM, 0.39 ± 0.06 µM and more than 0.8 µM, respectively. Further, the Ki in series [6] (setting [10]) stood at 4.3 ± 0.8 µM; in series [2] (setting [12]), 4 ± 0.8 µM; in series [4] (setting [15]), 0.55 ± 0.06 µM.
With `Clc1ccc(C(Cc2ccccc2)C2CCCCN2)cc1` (single isomer, unassigned) [J], the IC50 in series [5] (RR/SS racemates table) worked out at 1.1 ± 0.2 µM; in series [1] (setting [11]) it was 0.37 ± 0.09 µM; in series [3] (NORE[…] REUPTAKE (IC50)) it was 2.9 ± 0.6 µM. Moreover, the Ki was 1.1 ± 0.2 µM in series [6] (setting [10]), 2.9 ± 0.8 µM in series [2] (setting [12]) and 0.44 ± 0.11 µM in series [4] (setting [13]). In addition, in series [1] (in words, from binding and reuptake values), the “selectivity for the dopamine transporter over the norepinephrine transporter” value was “enhanced selectivity”. Moreover, the “NE/DA REUPTAKE” value in series [1] was 7.8.
Turning to `COC(=O)C(c1ccc(Cl)c(Cl)c1)C1CCCCN1` (single isomer, unassigned) [MM], the 50% inhibitory concentration (IC50) in series [5] (RS/SR racemates table) was determined as 1.1 ± 0.09 µM; in series [1] (setting [14]), 0.8 ± 0.11 µM; in series [3] (setting [18]), 0.19 ± 0.05 µM. Also, the Ki in series [6] (setting [16]) was 2.5 ± 0.42 µM; in series [2] (setting [17]), 4.2 ± 1.9 µM; in series [4] (setting [15]) it was 0.09 ± 0.014 µM.
For `COC(=O)C(c1ccc(Cl)c(Cl)c1)C1CCCCN1` (single isomer, unassigned) [M], the IC50 was determined as 0.54 ± 0.11 µM in series [5] (RR/SS racemates table), 0.023 ± 0.003 µM in series [1] (setting [11]) and 0.01 ± 0.001 µM in series [3] (setting [9]). Besides, the Ki in series [6] (setting [19]) was determined as 1.6 ± 0.15 µM; in series [2] (setting [8]) it was 0.014 ± 0.006 µM; in series [4] (setting [13]), 0.0014 ± 0.0001 µM. Further, the “NE/DA REUPTAKE” value in series [1] is recorded as 0.43.
With `CC(C)CC(c1ccc(Cl)c(Cl)c1)C1CCCCN1C` (single isomer, unassigned) [OO], the results for the IC50 in series [5] (RS/SR racemates table), in series [1] (setting [14]) and in series [3] (setting [18]) were 2.4 ± 0.7 µM, 0.045 ± 0.004 µM and 0.1 ± 0.019 µM, respectively. For the same compound, the Ki was found to be 1.5 ± 0.3 µM in series [6] (setting [16]), 0.66 ± 0.13 µM in series [2] (setting [17]) and 0.044 ± 0.012 µM in series [4] (setting [15]). Besides, the “potency at binding to the dopamine transporter and blocking dopamine reuptake” value in series [4] is recorded as “considerably more potent; also recorded: most potent”.
In the case of `CC(C)CC(c1ccc(Cl)c(Cl)c1)C1CCCCN1C` (single isomer, unassigned) [O], the IC50 in series [5] (RR/SS racemates table) was 1.4 ± 0.5 µM; in series [1] (setting [11]), 0.013 ± 0.004 µM; in series [3] (setting [9]) it was 0.029 ± 0.003 µM. In addition, the Ki in series [6] (setting [19]) was determined as 1.3 ± 0.2 µM; in series [2] (setting [8]), 0.19 ± 0.06 µM; in series [4] (setting [13]), 0.0066 ± 0.0009 µM. For the same compound, in series [1], the “NE/DA REUPTAKE” value is on record as 2.2.
As for `COC(=O)C(c1ccccc1)C1CCCCN1` (centres unmarked) [MPH, methylphenidate, reference compound], the IC50 in series [5] (RR/SS racemates table) was found to be 55 ± 16 µM; in series [5] (RS/SR racemates table), 55 ± 16 µM; in series [3] (NORE[…] REUPTAKE (IC50), RR/SS racemates table, HEK 293 cells), 0.038 ± 0.004 µM; in series [3] (NORE[…] REUPTAKE (IC50), RS/SR racemates table, HEK 293 cells) it was 0.038 ± 0.004 µM. Besides, the “binding to or reuptake at the serotonin transporter” value in series [6] is listed as “neither MPH nor the MPH analogs demonstrated significant binding to or reuptake at the serotonin transporter”. Moreover, the Ki in series [6] (setting [10]) was found to be 40 ± 8 µM; in series [2] (NOREPINEPHRINE [I125]-RTI-55 BINDING (Ki), RR/SS racemates table, HEK 293 cells) it was 1.8 ± 0.8 µM; in series [2] (NOREPINEPHRINE [I125]-RTI-55 BINDING (Ki), RS/SR racemates table, HEK 293 cells), 1.8 ± 0.8 µM. Further, in the series on male Swiss-Webster mice (mice, IP), the “time of occurrence of stimulant effects following injection” value was not above 10 min. In addition, in the series with male Swiss-Webster mice (mouse, in vivo), the “duration of stimulant effects” value was “up to 4 hours”. Moreover, the “time of maximum drug concentration after oral administration” value in series [7] was “about two hours”.
As to `COC(=O)[C@H]1[C@@H](OC(=O)c2ccccc2)C[C@@H]2CC[C@H]1N2C` [cocaine], the “period of maximal stimulant effects” value in the series with male Swiss-Webster mice (mice, IP, 20 mg/kg) is not above 30 min. In addition, in the series on male Swiss-Webster mice (mice, IP, 10, 20, and 40 mg/kg), the “duration of stimulant effects” value is “up to 2 hours”. In the series on male Swiss-Webster mice (mice, IP), the “time of occurrence of stimulant effects following injection” value was not above 10 min.
